The source of these data is US10820591B2, “Substituted sulfonyl amides for controlling animal pests” (Bayer Aktiengesellschaft, priority 2016, dated 2020).

For one assay, the system named is Meloidogyne incognita. The assay can be described thus: Meloidogyne incognita test (sand, lettuce, gall formation). The format is in vivo. Particulars: Meloidogyne incognita, 336 h, 4 ppm, after 14 days; read-out: nematicidal efficacy (formation of galls). The procedure: Meloidogyne incognita Test [table] To produce a suitable active compound preparation, 1 part by weight of active compound is mixed with the stated amount of solvent and the concentrate is diluted to the desired concentration with water. Vessels are filled with sand, active compound solution, an egg/larvae suspension of the southern root-knot nematode (Meloidogyne incognita) and lettuce seeds. The lettuce seeds germinate and the plants develop. The galls develop on the roots. After 14 days, the nematicidal efficacy in % is determined by the formation of galls. 100% means that no galls were found; 0% means that the number of galls on the treated plants corresponds to the untreated control.
For `Cn1nc(C(=O)NS(=O)(=O)c2c(Cl)cccc2Cl)cc1-c1c(F)cccc1F` [I-145], the pest or weed control at 4 ppm was 90%.

With `O=C(NS(=O)(=O)c1c(Cl)cccc1Cl)c1cn(Cc2ccc(Cl)cc2)cn1` [I-149], the pest or weed control at 4 ppm was determined as 90%.

The same assay, now with this note: Meloidogyne incognita, 336 h, 20 ppm, after 14 days; read-out: nematicidal efficacy (formation of galls).
`CCCCOc1ccc(S(=O)(=O)NC(=O)c2ncn(CCC(F)(F)F)c2Cl)cc1` [I-090]: the pest or weed control at 20 ppm amounted to 90%. Same read-out and setting: the result for `CC(=O)Nc1ccc(S(=O)(=O)NC(=O)c2ncn(CCC(F)(F)F)c2Cl)cc1` [I-091] reads 90%. Same read-out and setting: the result for `Cc1ccc(CS(=O)(=O)NC(=O)c2ncn(CCC(F)(F)F)c2Cl)cc1` [I-092] reads 70%; that for `Cc1ccccc1CS(=O)(=O)NC(=O)c1ncn(CCC(F)(F)F)c1Cl` [I-093], 100%. Same read-out and setting: the result for `O=C(NS(=O)(=O)c1ccc(Cl)s1)c1ncn(CCC(F)(F)F)c1Cl` [I-094] reads 90%; that for `Cc1noc(C)c1S(=O)(=O)NC(=O)c1ncn(CCC(F)(F)F)c1Cl` [I-095], 90%; that for `COc1cc(OC)nc(Oc2ccc(S(=O)(=O)NC(=O)c3ncn(CCC(F)(F)F)c3Cl)cc2)n1` [I-096], 90%. Take `O=C(NS(=O)(=O)c1cccs1)c1ncn(CCC(F)(F)F)c1Cl` [I-097]: the pest or weed control at 20 ppm worked out at 90%. Still for that read-out and setting: the figure for `COc1ccc(Cl)c(S(=O)(=O)NC(=O)c2ncn(CC(F)(F)C(F)(F)F)c2Cl)c1` [I-098] is 90%; for `O=C(NS(=O)(=O)c1c(Cl)cccc1Cl)c1ncn(CC(F)(F)C(F)(F)F)c1Cl` [I-099] it is 70%; for `COc1ccc(Cl)c(S(=O)(=O)NC(=O)c2ncn(C(C)CC(F)(F)F)c2Cl)c1` (centres unmarked) [I-100] it is 90%. The same measure, in the same setting: the figure for `CC(CC(F)(F)F)n1cnc(C(=O)NS(=O)(=O)c2c(Cl)cccc2Cl)c1Cl` (centres unmarked) [I-101] is 100%; for `CC(CC(F)(F)F)n1cnc(C(=O)NS(=O)(=O)c2ccccc2C(F)(F)F)c1Cl` (centres unmarked) [I-102] it is 100%; for `COc1ccc(Cl)c(S(=O)(=O)NC(=O)c2ncn(C3CC3C(F)(F)F)c2Cl)c1` (centres unmarked) [I-103] it is 100%. Same read-out and setting: the result for `CC(C)Oc1ccc(Cl)c(S(=O)(=O)NC(=O)c2ncn(C3CC3C(F)(F)F)c2Cl)c1` (centres unmarked) [I-104] reads 100%. Turning to `O=C(NS(=O)(=O)c1cc(C(F)(F)F)ccc1Cl)c1ncn(C2CC2C(F)(F)F)c1Cl` (centres unmarked) [I-105], the pest or weed control at 20 ppm was determined as 90%.

As for `COc1ccc(Cl)c(S(=O)(=O)NC(=O)c2nc(Br)n(CCC(F)(F)F)c2Br)c1` [I-108], the pest or weed control at 20 ppm was 100%. Still for that read-out and setting: the result for `COc1ccc(Cl)c(S(=O)(=O)NC(=O)c2nc(C)n(-c3cc(Cl)cc(Cl)c3)c2Br)c1` [I-109] reads 100%. Same read-out and setting: the result for `COc1ccc(Cl)c(S(=O)(=O)NC(=O)c2nc(C)n(-c3cc(Cl)cc(Cl)c3)c2I)c1` [I-110] reads 100%.

`Cc1nc(C(=O)NS(=O)(=O)c2ccccc2Cl)c(Cl)n1-c1cc(Cl)cc(Cl)c1` [I-111]: the pest or weed control at 20 ppm amounted to 100%.

For the compound `Cc1ccccc1S(=O)(=O)NC(=O)c1nc(C)n(-c2cc(Cl)cc(Cl)c2)c1Cl` [I-112], the pest or weed control at 20 ppm is 100%. Still for that read-out and setting: the figure for `O=C(NS(=O)(=O)c1ccccc1Cl)c1nc(Cl)n(-c2cc(Cl)cc(Cl)c2)c1Cl` [I-114] is 100%.

`Cc1ccccc1S(=O)(=O)NC(=O)c1nc(Cl)n(-c2cc(Cl)cc(Cl)c2)c1Cl` [I-115]: the pest or weed control at 20 ppm was found to be 100%. Regarding `CC(C)S(=O)(=O)NC(=O)c1cn(C)c(Cc2ccccc2Cl)n1` [I-117], the pest or weed control at 20 ppm amounted to 90%. The same measure, in the same setting: the result for `Cn1cc(C(=O)NS(=O)(=O)c2ccccc2Cl)nc1Cc1cccc(Cl)c1` [I-119] reads 90%; that for `O=C(NS(=O)(=O)c1cc(Cl)ccc1Cl)c1nc(Cl)n(CCC(F)(F)F)c1Cl` [I-123], 90%. Same read-out and setting: the result for `O=C(NS(=O)(=O)c1ccccc1Cl)c1nc(Cl)n(CCC(F)(F)F)c1Cl` [I-124] reads 100%. Still for that read-out and setting: the figure for `COc1ccc(S(=O)(=O)NC(=O)c2nc(Cl)n(CCC(F)(F)F)c2Cl)cc1` [I-125] is 100%; for `Cn1nc(C(=O)NS(C)(=O)=O)cc1-c1cccc(Cl)n1` [I-126] it is 100%. In the case of `Cn1nc(C(=O)NS(C)(=O)=O)cc1-c1ncccc1Cl` [I-128], the pest or weed control at 20 ppm was 70%.

On to `COc1ccc(Cl)c(S(=O)(=O)NC(=O)c2cc(-c3cccc(Cl)c3)n(C)n2)c1` [I-129], for which the pest or weed control at 20 ppm amounted to 90%.

As to `COc1ccc(Cl)c(S(=O)(=O)NC(=O)c2cc(-c3ccccc3Cl)n(C)n2)c1` [I-130], the pest or weed control at 20 ppm worked out at 90%. Take `Cn1nc(C(=O)NS(=O)(=O)c2cc(Cl)ccc2Cl)cc1-c1ccc(Cl)cc1` [I-131]: the pest or weed control at 20 ppm is 90%. On to `Cn1nc(C(=O)NS(=O)(=O)c2cc(Cl)ccc2Cl)cc1-c1cccc(Cl)c1` [I-132], for which the pest or weed control at 20 ppm was 90%.

Regarding `Cn1nc(C(=O)NS(=O)(=O)c2cc(Cl)ccc2Cl)cc1-c1ccccc1` [I-133], the pest or weed control at 20 ppm worked out at 70%. The same measure, in the same setting: the result for `Cn1nc(C(=O)NS(=O)(=O)c2cc(Cl)ccc2Cl)cc1-c1cc(Cl)cc(Cl)c1` [I-134] reads 100%; that for `Cn1nc(C(=O)NS(=O)(=O)c2cc(Cl)ccc2Cl)cc1-c1cccc(C(F)(F)F)c1` [I-135], 90%. Turning to `Cn1nc(C(=O)NS(=O)(=O)c2cc(Cl)ccc2Cl)cc1-c1ncc(C(F)(F)F)cc1Cl` [I-136], the pest or weed control at 20 ppm came out at 100%. Still for that read-out and setting: the result for `COc1ccc(Cl)c(S(=O)(=O)NC(=O)c2cc(-c3cccc(C(F)(F)F)c3)n(C)n2)c1` [I-138] reads 100%. As to `COc1ccc(Cl)c(S(=O)(=O)NC(=O)c2cc(-c3ncc(C(F)(F)F)cc3Cl)n(C)n2)c1` [I-139], the pest or weed control at 20 ppm was 100%. Still for that read-out and setting: the figure for `Cn1nc(C(=O)NS(=O)(=O)c2cc(Cl)ccc2Cl)cc1-c1cc(F)cc(C(F)(F)F)c1` [I-140] is 100%; for `Cn1nc(C(=O)NS(=O)(=O)c2ccccc2Cl)cc1-c1c(F)cccc1F` [I-142] it is 100%. On the same count and under the same terms, the figure for `Cn1nc(C(=O)NS(=O)(=O)c2cc(Cl)ccc2Cl)cc1-c1c(F)cccc1F` [I-143] is 90%. The same measure, in the same setting: the figure for `COc1ccc(Cl)c(S(=O)(=O)NC(=O)c2cc(-c3c(F)cccc3F)n(C)n2)c1` [I-144] is 90%; for `Cn1nc(C(=O)NS(=O)(=O)c2c(Cl)cccc2Cl)cc1-c1c(F)cccc1F` [I-145] it is 70%; for `Cn1nc(C(=O)NS(=O)(=O)c2c(F)cccc2F)cc1-c1c(F)cccc1F` [I-146] it is 100%.

As to `O=C(NS(=O)(=O)c1ccc(Cl)cc1Cl)c1cn(Cc2ccc(Cl)cc2)cn1` [I-148], the pest or weed control at 20 ppm stood at 100%.

On to `O=C(NS(=O)(=O)c1ccc(Cl)cc1)c1cn(Cc2ccccc2)cn1` [I-150], for which the pest or weed control at 20 ppm was 100%.

`O=C(NS(=O)(=O)c1ccccc1)c1cn(Cc2ccc(Cl)cc2)cn1` [I-151]: the pest or weed control at 20 ppm is 100%. In the case of `O=C(NS(=O)(=O)c1ccccc1)c1cn(Cc2ccccc2)cn1` [I-152], the pest or weed control at 20 ppm amounted to 100%. Still for that read-out and setting: the result for `O=C(NS(=O)(=O)c1cc(Cl)ccc1Cl)c1cn(Cc2ccccc2)cn1` [I-153] reads 100%; that for `O=C(NS(=O)(=O)c1cc(Cl)ccc1Cl)c1cn(Cc2ccc(Cl)cc2)cn1` [I-154], 90%.

Consider `O=C(NS(=O)(=O)c1ccccc1)c1cn(Cc2ccccc2Cl)cn1` [I-155], for which the pest or weed control at 20 ppm amounted to 100%. With `O=C(NS(=O)(=O)c1c(Cl)cccc1Cl)c1cn(Cc2ccccc2Cl)cn1` [I-157], the pest or weed control at 20 ppm worked out at 90%. The same measure, in the same setting: the result for `O=C(NS(=O)(=O)c1ccccc1Cl)c1cn(Cc2cccc(Cl)c2)cn1` [I-159] reads 100%; that for `O=C(NS(=O)(=O)c1c(Cl)cccc1Cl)c1cn(Cc2cccc(C(F)(F)F)c2)cn1` [I-161], 100%.

Regarding `O=C(NS(=O)(=O)c1ccccc1Cl)c1cn(Cc2cccc(C(F)(F)F)c2)cn1` [I-162], the pest or weed control at 20 ppm amounted to 100%. On the same count and under the same terms, the figure for `Cc1nc(C(=O)NS(=O)(=O)c2ccccc2Cl)cn1Cc1ccccc1Cl` [I-163] is 90%; for `O=C(NS(=O)(=O)c1cccc(Cl)c1)c1cn(Cc2ccc(Cl)cc2)cn1` [I-164] it is 90%. Same read-out and setting: the result for `O=C(NS(=O)(=O)c1ccccc1Cl)c1cn(Cc2cc(Cl)cc(Cl)c2)cn1` [I-165] reads 100%.

For `O=C(NS(=O)(=O)c1c(Cl)cccc1Cl)c1cn(Cc2cc(Cl)cc(Cl)c2)cn1` [I-166], the pest or weed control at 20 ppm worked out at 100%. Still for that read-out and setting: the figure for `O=C(NS(=O)(=O)c1ccccc1)c1cn(Cc2cc(Cl)cc(Cl)c2)cn1` [I-167] is 90%; for `Cc1nc(C(=O)NS(=O)(=O)c2ccccc2Cl)cn1Cc1cccc(Cl)c1` [I-168] it is 100%.

For `Cc1nc(C(=O)NS(=O)(=O)c2c(Cl)cccc2Cl)cn1Cc1cccc(Cl)c1` [I-169], the pest or weed control at 20 ppm was 90%. On to `O=C(NS(=O)(=O)c1ccccc1Cl)c1cn(-c2cccc(Cl)c2)cn1` [I-174], for which the pest or weed control at 20 ppm came to 100%. On the same count and under the same terms, the result for `O=C(NS(=O)(=O)c1c(Cl)cccc1Cl)c1cn(-c2cccc(Cl)c2)cn1` [I-175] reads 100%; that for `O=C(NS(=O)(=O)c1ccccc1Cl)c1cn(-c2cccc(C(F)(F)F)c2)cn1` [I-176], 100%; that for `O=C(NS(=O)(=O)c1c(Cl)cccc1Cl)c1cn(-c2cccc(C(F)(F)F)c2)cn1` [I-177], 100%. On the same count and under the same terms, the figure for `COc1ccc(Cl)c(S(=O)(=O)NC(=O)c2cn(-c3cccc(C(F)(F)F)c3)cn2)c1` [I-178] is 100%.
